This note sets out measurements from PubChem BioAssay AID624395 (The Scripps Research Institute Molecular Screening Center, 2012).

The source made the active and inactive calls. No rule for the calls is given here.

The experiment has as its system cell-based VP16 transactivation luciferase luminescence. Nature of the experiment: compounds lowering VP16-driven reporter luminescence – cell-based, counter-screen for NR2E3 agonist project, dose response (AID 624395).
Broadly, the IC50 is the concentration that inhibits the measured activity by half. Consider `c1ccc(-c2cc(CSc3nc4ccccc4[nH]3)on2)cc1`, for which the 50% inhibitory concentration (IC50) is 2.69 µM.
In the case of `Cc1cc(C(=O)COc2cccnc2[N+](=O)[O-])c(C)n1-c1ccccc1`, the IC50 was 0.3 µM.
Then `CN(C)c1ncnc2c1ccn2C1OC(CO)C(O)C1O` (stereo unspecified), with 0.53 µM.
As for `Cc1cnc(NC(=O)C2CC(=O)N(c3cccc(Cl)c3)C2)s1` (stereo unspecified), the half-maximal inhibitory concentration (IC50) is 1.05 µM.
Then `CCOc1ccc(-c2nc(CSCC(=O)N3CCN(c4cccc(OC)c4)CC3)c(C)o2)cc1`, with 3.02 µM.
As for `CCCOc1ccc(CSc2nc3ccccc3[nH]2)cc1`, the IC50 was 13.3 µM (inactive).
Then `COc1ccc(C)cc1NC(=O)c1nnn(Cc2cccc(C(F)(F)F)c2)c1N`, with > 39.8 µM (inactive); and `Cc1ccc(CN2CC(C(=O)Nc3ncc(C)s3)CC2=O)cc1` (stereo unspecified), with > 39.8 µM (inactive); and `Cc1ccc(-c2nc(NC(=O)CSc3nnnn3-c3ccccc3)ns2)cc1`, with 12.1 µM (inactive).
Regarding `Cc1ccsc1C(=O)OCC(=O)c1cc(C)n(CC2CCCO2)c1C` (stereo unspecified), the IC50 is 0.0525 µM.
Then `C=C1C(=O)OC2CC(C)C3C=CC(=O)C3(C)C(O)C12` (stereo unspecified), with 10.5 µM (inactive).
Then `O=C(Nc1cccc(OC(F)(F)F)c1)C1Cc2c(-c3ccc4c(c3)OCO4)ccnc2O1` (stereo unspecified), with 14.4 µM (inactive); and `CCN(c1ccccc1)S(=O)(=O)c1ccc(C(=O)Nc2nnc(CSC)o2)cc1`, with 12.7 µM (inactive).
Then `CC(C)(C)NCC(=Cc1ccccc1)C(=O)c1ccccc1`, with 7.33 µM.
`COc1ccc(NC(=O)c2sc(=O)n(Cc3cccc(C(F)(F)F)c3)c2C)cc1OC`: the IC50 is 35.6 µM (inactive).
The result for `O=C1C(=O)c2cccnc2-c2ncccc21` reads 13.1 µM (inactive); that for `Brc1ccc(N/N=C(/N=Nc2nn[nH]n2)c2ccccc2)cc1`, 12.8 µM (inactive).
Turning to `CC(=O)N1c2ccc(S(=O)(=O)N3CCC(C(=O)Nc4cccc(Cl)c4)CC3)cc2CC1C` (stereo unspecified), the half-maximal inhibitory concentration (IC50) was 6.45 µM.
The result for `COCCn1c(C)cc(C(=O)COc2ccc(C)nc2[N+](=O)[O-])c1C` reads 1.46 µM; that for `Cc1cnc(NC(=O)Cc2ccc(Br)cc2)s1`, > 39.9 µM (inactive); that for `O=C(COc1cccc2ccccc12)Nc1ccc(Cl)cc1C(=O)O`, 4.04 µM.
With `O=C(c1cc(S(=O)(=O)N2CCN(c3ccccc3)CC2)ccc1Cl)N1CCCCCCC1`, the IC50 is 2.51 µM.
For the compound `COc1cc2nc(CN3CC=C(c4ccccc4)CC3)[nH]c(=O)c2cc1OC`, the IC50 was 1.91 µM.
The result for `CC(C)(C)C(=O)Nc1ccc(Sc2ccc([N+](=O)[O-])cc2)cc1` reads 4.6 µM; that for `CN(C)c1ccc(/C=C/c2cc[n+](C)c3ccccc23)cc1`, 6.66 µM.
The result for `Cc1nn(Cc2cccc(F)c2)c(C)c1NC(=O)c1ccc(COc2ccccc2Cl)cc1` reads 11.7 µM (inactive); that for `CCC1(C)Cc2c(sc3[nH]c(=S)n(Cc4ccccc4)c(=O)c23)CO1` (stereo unspecified), 12.1 µM (inactive); that for `COc1ccc(S(=O)(=O)N2CCCCC2)cc1NC(=S)Nc1cccc(Cl)c1C`, > 39.8 µM (inactive).
`COc1ccc(C[C@@H]2OC3(C=CC(=O)C=C3)O[C@H]2Cc2ccc(OC)cc2)cc1`: the half-maximal inhibitory concentration (IC50) was 0.845 µM.
On to `Oc1[nH]c2ccccc2c1N=NC(=S)N1CCOCC1`, for which the IC50 is > 39.9 µM (inactive).
The result for `N=C1SCC(=O)N1c1ncc(Cc2ccccc2Cl)s1` reads 10.5 µM (inactive); that for `O=C(C1CCC(CNS(=O)(=O)c2cccc3nsnc23)CC1)N1CC=C(c2ccccc2)CC1` (stereo unspecified), 6.86 µM.
The result for `N#C/C(=C\c1ccc(Sc2nc3ccccc3[nH]2)o1)c1ccccc1` reads 4.65 µM; that for `COc1ccccc1C(=O)Nc1nc2ccccc2[nH]1`, 5.03 µM; that for `O=C(OC(c1ccccc1)c1nccc2ccccc12)c1ccccc1` (stereo unspecified), 0.242 µM.
The result for `CCc1ccccc1Nc1nn2c(=O)c3ccc(C(=O)NCc4ccccn4)cc3nc2s1` reads > 13.3 µM (inactive).
For the compound `Cc1cccc(C(=O)N[C@H](C(=O)Nc2ncc(C)s2)C(C)C)c1`, the IC50 is 12.1 µM (inactive).
The result for `CCC1(O)C(=O)OCc2c1cc1n(c2=O)Cc2cc3c(N)cccc3nc2-1` (stereo unspecified) reads 2.33 µM; that for `CCc1cc(OCCCSc2nc(C)cc(=O)[nH]2)ccc1Cl`, 7.05 µM.
The result for `COc1ccc2c(CC(=O)Nc3ncc(C)s3)coc2c1` reads > 39.8 µM (inactive); that for `Cc1cc(C(=O)Nc2ccc(Cl)cc2)c(C)n1-c1ccccc1`, 0.00684 µM; that for `COc1ccc(NC2c3ccccc3C(=O)N2Cc2ccccc2Cl)cc1OC` (stereo unspecified), > 39.8 µM (inactive).
The result for `CC(C)c1ccc(-c2csc(NC(=O)c3cccs3)c2C(=O)O)cc1` reads 12.1 µM (inactive); that for `CC[C@@]1(O)C(=O)OCc2c1cc1n(c2=O)Cc2cc3c(N)cccc3nc2-1`, 1.99 µM; that for `Cc1cc(C(=O)CSc2nnc3ccccn23)c(C)n1-c1ccccc1`, 25.7 µM (inactive).
In the case of `COc1ccc(S(=O)(=O)N2CCCCC2)cc1NC(=S)Nc1ccccc1`, the IC50 was > 39.8 µM (inactive).
Then `Cc1cccc(/C=N/Nc2cc(N3CCOCC3)nc(N3CCOCC3)n2)c1`, with 5.91 µM; and `O=C(Nc1cccc(NC(=O)c2c(F)cccc2F)n1)c1c(F)cccc1F`, with > 39.8 µM (inactive).
Then `CCN(CC)S(=O)(=O)c1ccc(NC(=O)Nc2cccc(C(F)(F)F)c2)cc1`, with 7.08 µM; and `Cc1sc(NC(=O)/C=C/c2ccc3c(c2)OCO3)nc1-c1ccccc1`, with 7.11 µM; and `O=C(Nc1ccccc1Cl)/C(Cl)=C(\Cl)S(=O)c1ccccc1` (stereo unspecified), with 4.1 µM.
The result for `CCn1c(=O)cc(SCC(=O)Nc2ccc(C)cn2)c2ccccc21` reads 4.63 µM; that for `Cc1cc(C)cc(NC(=O)CCc2nc3sc4c(c3c(=O)[nH]2)CCCC4)c1`, > 39.8 µM (inactive); that for `Cc1ccc(S(=O)(=O)N(CC(=O)Nc2ccccc2C(=O)O)c2cccc(Cl)c2C)cc1`, 18.8 µM (inactive).
`CC(=O)c1c(C)[nH]c(C(=O)OCC(=O)c2ccc(Br)cc2)c1C`: the half-inhibitory concentration (IC50) is 3.45 µM.
Then `CCC1(OC(=O)CN(C)C)C(=O)OCc2c1cc1n(c2=O)Cc2cc3c(N)cccc3nc2-1` (stereo unspecified), with 2.99 µM; and `NC1=C(Br)C(=O)c2ncccc2C1=O`, with 2.51 µM.
Then `CCC1(OC(=O)CN)C(=O)OCc2c1cc1n(c2=O)Cc2cc3ccccc3nc2-1` (stereo unspecified), with 1.31 µM; and `CCOC(=O)[C@]12Cc3cc(C)ccc3[C@H]1N(C1CCCCC1)C(=O)c1cc(OC)ccc12`, with 4.32 µM.
The result for `CCC1(O)C(=O)OCc2c1cc1n(c2=O)Cc2cc3cc(O)ccc3nc2-1` (stereo unspecified) reads 3.4 µM; that for `O=C(C(=Cc1ccccc1)CN1CCCCC1)c1ccccc1`, 4.54 µM.
On to `Clc1cc2cccnc2c2ncccc12`, for which the IC50 was 12.1 µM (inactive).
The result for `OC[C@@H]1CN(Cc2ccc(-c3ccccc3)cc2)C[C@H](n2cnc3c(Nc4ccccc4)ncnc32)O1` reads 5 µM; that for `O=C(O)c1ccc(S(=O)(=O)/N=C2\C=C(Nc3ccccc3F)C(=O)c3ccccc32)cc1`, 4.45 µM; that for `C#Cc1cccc(Nc2nc(NCc3ccccc3)nc3ccsc23)c1`, 12.8 µM (inactive).
Then `CN1CCN(C(=O)c2cccc(-c3cnc4cnc(-c5ccccc5Oc5ccccc5)cn34)c2)CC1`, with 12.7 µM (inactive).
